Results reported in ChEMBL document CHEMBL3988442, “University of Dundee, Small-Polar-MMV Screening Library” (2021).
“And” between values parts separate entries of the source, which are not always exact repeats. Equal entries are not always repeated.

Legend:
[1] = target: T1, Histidine--tRNA ligase (Leishmania infantum, UniProt A4I591); test: Leishmania infantum Histidine tRNA synthetase (LdHisRS); format: functional
T1 sequence (A4I591 whole entry): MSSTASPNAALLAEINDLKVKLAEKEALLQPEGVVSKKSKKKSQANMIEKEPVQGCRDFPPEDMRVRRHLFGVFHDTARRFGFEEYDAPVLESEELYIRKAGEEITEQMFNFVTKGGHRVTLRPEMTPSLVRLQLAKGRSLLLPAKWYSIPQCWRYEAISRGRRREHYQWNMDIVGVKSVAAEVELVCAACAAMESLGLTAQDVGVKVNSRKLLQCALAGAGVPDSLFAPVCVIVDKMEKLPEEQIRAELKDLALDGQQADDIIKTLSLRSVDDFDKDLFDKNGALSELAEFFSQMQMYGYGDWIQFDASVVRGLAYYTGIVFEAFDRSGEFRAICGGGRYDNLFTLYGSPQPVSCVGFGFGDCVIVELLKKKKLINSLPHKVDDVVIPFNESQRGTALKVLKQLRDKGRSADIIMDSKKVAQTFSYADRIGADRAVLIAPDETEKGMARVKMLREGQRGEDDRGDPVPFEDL

[2] = microbe, parasite or virus in culture; settings: Mycobacterium tuberculosis, 96 h, read-out: pIC50 (converted)
[3] = microbe, parasite or virus in culture; settings: Mycobacterium tuberculosis, 72 h, read-out: pIC50 (converted)

For Cc1nc(CN2CCc3nc(N4CCCC4)nc(NC(C)C)c3C2)cs1, the IC50 [1] was 14.7 µM and 12.1 µM, the IC50 [2] was 25.4 µM and the IC50 [3] was 41.6 µM.
In the case of Cc1nc(CN2CCc3nc(NC(C)C)nc(C)c3C2)cs1, the IC50 [1] is reported as 64.5 µM and 57.7 µM, the IC50 [2] is reported as greater than 50.1 µM and the IC50 [3] is reported as greater than 50.1 µM.
For O=C(c1cc(-c2ccco2)cs1)N1CCCC1, the IC50 [1] was > 100 µM and 53 µM, the IC50 [2] was 33 µM and the IC50 [3] was 8 µM.
With NC(=O)C1=NC2=NS(=O)(=O)c3ccccc3N2N1Cc1ccc(Cl)cc1 the IC50 [1] was 62.9 µM and 43.4 µM, the IC50 [2] was 26.4 µM and the IC50 [3] was 45.4 µM.
With CSc1ccc(C(CN)N2CCc3sccc3C2)cc1 (configuration not stated) the IC50 [1] was 73.8 µM and 73.2 µM, the IC50 [2] was 24.1 µM and the IC50 [3] was 27.4 µM.
Compound COc1cccn(CC(=O)N(C)CCC2CCOCC2)c1=O has an IC50 [1] greater than 100 µM and an IC50 [2] greater than 50.1 µM.
With c1ccc(Oc2ccc(OC34CCCN(CC3)C4)cc2)cc1 (configuration not stated) the IC50 [1] was 39.4 µM and 40.6 µM, the IC50 [2] was 40.7 µM and the IC50 [3] was 23.7 µM.
In the case of CN(C)c1nc2c(c(N3CCc4ccccc4C3)n1)CCNC2, the IC50 [1] is reported as 28.8 µM and 22.8 µM, the IC50 [2] is reported as greater than 50.1 µM and the IC50 [3] is reported as 31.3 µM.
For COCc1ncc(-c2nccn2CCS(C)(=O)=O)cn1, the IC50 [1] was greater than 100 µM.
With Cc1ccccc1N1CCN(c2nc(N(C)C)nc3c2CCNC3)CC1 the IC50 [1] was 55.3 µM and 91.3 µM, the IC50 [2] was 27 µM and the IC50 [3] was 26 µM.
CCC1=NOC(CNCc2cnc(-c3ccccc3C)s2)C1 (configuration not stated) showed an IC50 [1] greater than 100 µM.
In the case of COc1cccc2c1OCCCN(c1nc(N)nc3c1CCNC3)C2, the IC50 [1] is reported as 28.2 µM and 32.1 µM.
With CCc1ocnc1C(=O)N1CCN(c2ccc3ccccc3c2)CC1 the IC50 [1] was 57.4 µM and 54 µM.
In the case of COCCCN(C)C(=O)Cn1cccc(OC)c1=O, the IC50 [1] is reported as 66 µM and 57.5 µM.
Compound O=C(c1cncc(N2CCC3(CCCNC3)C2)n1)N1CCCC1 (configuration not stated) has an IC50 [1] greater than 100 µM.
In the case of c1ccc(-c2cc(CN3C[C@@H]4CC[C@H](C3)N(CC3CCC3)C4)on2)cc1, the IC50 [1] is reported as 32.5 µM and 36.9 µM, the IC50 [2] is reported as 13.3 µM and the IC50 [3] is reported as 8.42 µM.
For CC(C)N(C)S(=O)(=O)c1ccc2c(c1)CCN(C(=O)c1ccccn1)C2, the IC50 [1] was 37 µM and 42.8 µM.
In the case of O=C1CC2(CCN(Cc3ccc4cccc(O)c4n3)CC2)CN1, the IC50 [1] is reported as 46.2 µM and 45.6 µM.
For O=C(O)C1c2nc[nH]c2CCN1CC(c1ccccc1)c1ccccc1 (configuration not stated), the IC50 [1] was 6.21 µM and 7.09 µM.
For c1ccc2c(c1)CCN(c1nc(-c3ccncc3)nc3c1CCNC3)C2, the IC50 [1] was 9.69 µM and 11.1 µM, the IC50 [2] was greater than 50.1 µM and the IC50 [3] was 49.7 µM.
With COc1cccn(Cc2nnc(-c3cccc(F)c3)o2)c1=O the IC50 [1] was 15.9 µM and 12.8 µM.
For CC(c1ccco1)n1cc(-c2cc(CN3CCCC3)cs2)nn1 (configuration not stated), the IC50 [1] was 55.6 µM and 80.9 µM.
In the case of Cc1nonc1CN(C)c1nc(-c2cccnc2)nc2c1CCNC2, the IC50 [1] is reported as 15.1 µM and 18.7 µM.
In the case of CCCN1CCC(Cc2nn3c(C(C)C)nnc3s2)CC1, the IC50 [1] is reported as greater than 100 µM.
Compound COc1cccc(-c2n[nH]c3c2CN(C(=O)c2cccc(=O)[nH]2)CC3)c1 has an IC50 [1] of 12.9 µM.
For COc1nccnc1-c1cc(NC2CCNCC2)nc2[nH]ccc12, the IC50 [1] was 34.1 µM and 29.8 µM.
Compound CN(C)c1ncc(-c2c(-c3ccccc3)ncn2C(CO)C(=O)O)cn1 (configuration not stated) has an IC50 [1] greater than 100 µM.
With CC(NC(=O)c1coc(COc2cccc(F)c2)n1)c1nnc(N)s1 (configuration not stated) the IC50 [1] was 98.7 µM and 60.1 µM.
In the case of CNC(=O)c1cn2cc(-c3ccccc3Cl)n(CC=C(C)C)c(=O)c2n1, the IC50 [1] is reported as 54.6 µM and 36 µM.
In the case of COc1ccc(Oc2nccc3occc23)cc1CN1CCCC1, the IC50 [1] is reported as 66.1 µM and 62.2 µM.
In the case of Cn1ncc(-c2cc(-c3cccc(O)c3)nc(N)c2C#N)c1C1CC1, the IC50 [1] is reported as 61.2 µM and 76.8 µM.
CCOc1ccc(C(=O)N(CCOC)Cc2c(C)nn(CC)c2C)o1 gave an IC50 [1] greater than 100 µM.
With Cc1ccc(C)c(OC(C)C(=O)NCCNc2cccnc2)c1 (configuration not stated) the IC50 [1] was 23.4 µM and 28.9 µM.
In the case of COc1cccc(CN2CCN(CC(C)C)C(=O)C2C)c1O (configuration not stated), the IC50 [1] is reported as 6.15 µM and 5.67 µM.
COc1cccn(CC(=O)N(C)Cc2ccoc2)c1=O gave an IC50 [1] greater than 100 µM.
For COc1cccn(CC(=O)N(C)CCOc2cc(C)cc(C)c2)c1=O, the IC50 [1] was 3.92 µM and 3.35 µM.
In the case of CC1=C(C#N)C(=O)NC(=O)/C1=C\c1c(C)nn(-c2ccc(C)cc2)c1O, the IC50 [1] is reported as 58.7 µM and 48 µM.
With CC1=C(C#N)C(=O)NC(=O)/C1=C\c1c(C)nn(-c2ccc(Cl)cc2)c1O the IC50 [1] was greater than 100 µM.
With Cc1nccn1-c1cccc(C2CCCN(C3CCCCC3)C2)n1 (configuration not stated) the IC50 [1] was 36.7 µM and 33.6 µM.
With NC(=O)C1CCCN(Cc2c(-c3ccco3)[nH]c3ncccc23)C1 (configuration not stated) the IC50 [1] was 67.8 µM and 46 µM.
With OC1CCCN(Cc2c(-c3ccco3)[nH]c3ncccc23)C1 (configuration not stated) the IC50 [1] was 58.7 µM and 38.5 µM.
In the case of Cn1nc2c(cc1=O)CN(Cc1nc(-c3ccccn3)no1)CC2, the IC50 [1] is reported as greater than 100 µM.
Work on Cc1noc(C)c1C(=O)N1CCC(Nc2cccnn2)CC1 yielded an IC50 [1] greater than 100 µM.
For Cn1cc(NS(=O)(=O)c2ccc(F)c(F)c2)ccc1=O, the IC50 [1] was greater than 100 µM.
In the case of Cc1ccccc1-c1noc(CN2CCc3nn(C)c(=O)cc3C2)n1, the IC50 [1] is reported as 25.2 µM and 21.2 µM.
With Cc1ccc(-c2noc(CN3CCc4nn(C)c(=O)cc4C3)n2)cc1 the IC50 [1] was 29.8 µM and 30.4 µM.
With Cn1nc2c(cc1=O)CN(Cc1nc(-c3ccco3)no1)CC2 the IC50 [1] was 11.8 µM and 14 µM.
In the case of CC(=O)NCC1CCN(c2cc(C)nc(-c3ccncc3)n2)CC1, the IC50 [1] is reported as 64 µM and > 100 µM.
CC(=O)N(Cc1noc(C)n1)C1CCN(Cc2cccc(C#N)c2)C1 (configuration not stated) gave an IC50 [1] greater than 100 µM.
For CC(O)CNC(=O)NCc1ccc(N2CCNC(=O)C2)cc1 (configuration not stated), the IC50 [1] was > 100 µM and 58.3 µM.
For CC(C(=O)NCc1ccc(N2CCNC(=O)C2)cc1)n1cncn1 (configuration not stated), the IC50 [1] was 60.1 µM and 77.1 µM.
With c1ccc(Cn2cc(CNCC3CCCN3c3cccnn3)cn2)cc1 (configuration not stated) the IC50 [1] was greater than 100 µM.
For O=C(CN1CCc2cncnc2C1)NCCOc1ccccc1, the IC50 [1] was 74.1 µM and 60.5 µM.
With Cc1nccc(-c2cccc(NCC(=O)N3CCc4sccc4C3)c2)n1 the IC50 [1] was 73.8 µM and 68.4 µM.
With c1ccc(-n2ncc(CNCC3CCCN3c3cccnn3)n2)cc1 (configuration not stated) the IC50 [1] was 22.3 µM and 27.2 µM.
In the case of Cc1noc(C)c1CN1CCc2nn(C(C)C)c(=O)cc2C1, the IC50 [1] is reported as 86 µM and > 100 µM.
With Cc1ncc2c(n1)CN(Cc1nnc(Cc3ccccc3)o1)CC2 the IC50 [1] was 48.1 µM and 49.9 µM.
For Cc1ncc2c(n1)CN(Cc1nnc(-c3occc3C)o1)CC2, the IC50 [1] was 64.7 µM and 82.6 µM.
For Cc1nnc(NCc2ccccc2Cl)c(C#N)c1C, the IC50 [1] was 24.6 µM and 31.1 µM.
CC(C)c1ncc2c(n1)CN(Cc1nc(Cc3ccccc3)no1)CC2 showed an IC50 [1] greater than 100 µM.
In the case of COc1ccccc1N1CCC(CNCc2cccc(OC)c2OC)C1 (configuration not stated), the IC50 [1] is reported as greater than 100 µM.
CC(C(=O)Nc1ccc(N2CCCC2)nc1)n1cncn1 (configuration not stated) gave an IC50 [1] greater than 100 µM.
In the case of c1ccc(-c2cnc(CNC3CCCN(c4cccnn4)C3)o2)cc1 (configuration not stated), the IC50 [1] is reported as 43.5 µM and 30.5 µM.
For COc1ccc(-c2nc(CN3CCc4c(ncn4C)C3)cs2)cc1, the IC50 [1] was 69.8 µM and 87.5 µM.
COc1ccc(-c2noc(CN3CCc4cncnc4C3)n2)cc1 gave an IC50 [1] greater than 100 µM.
Compound CC(C)c1nn(C)c(N(C)C)c1CNCc1ccccc1CN(C)C has an IC50 [1] greater than 100 µM.
Work on COc1cc(CNc2cnn(C)c2)cc2c1OCCO2 yielded an IC50 [1] greater than 100 µM.
In the case of Cc1ccc(C(=O)N2CCN(C(=O)NC(C)Cn3ccnc3)CC2)o1 (configuration not stated), the IC50 [1] is reported as greater than 100 µM.
With O=C(Cc1csc(-c2ccco2)n1)N1CCN(c2cnccn2)CC1 the IC50 [1] was 53.2 µM and 34.3 µM.
In the case of CCOc1nnc(CNC2CCCN(c3ccc(C)nn3)C2)s1 (configuration not stated), the IC50 [1] is reported as > 100 µM and 94.7 µM.
With CCCc1nc(CN2CCOC(CNc3cccnn3)C2)cs1 (configuration not stated) the IC50 [1] was 45.1 µM and 33.5 µM.
CCC1CN(CCC(=O)N(C)C)CCN1CCOC (configuration not stated) showed an IC50 [1] greater than 100 µM.
For CC(O)CN1CCN(C(=O)c2ccc(Cn3cccn3)cc2)CC1 (configuration not stated), the IC50 [1] was greater than 100 µM.
Work on Cc1csc(N2CCN(C(=O)CCC(=O)c3ccc(C)s3)CC2)n1 yielded an IC50 [1] greater than 100 µM.
In the case of COCCOc1ccccc1C(=O)N1CCCCC1c1nccs1 (configuration not stated), the IC50 [1] is reported as 51.1 µM and 64.2 µM.
With CCCn1nc2c(cc1=O)CN(CCCN1CCCC1=O)CC2 the IC50 [1] was 48.6 µM and 55.3 µM.
With Cc1nc(CN(C)C2CCN(Cc3ccc4ccccc4n3)C2)no1 (configuration not stated) the IC50 [1] was 59.9 µM and 39.8 µM.
In the case of Cc1cc(N2CCC(Cc3ccccc3)CC2)nc(-c2ccncc2)n1, the IC50 [1] is reported as 25 µM and 18.4 µM.
In the case of Cc1nc(CN2CCCC2c2ccsc2)nc2ccccc12 (configuration not stated), the IC50 [1] is reported as 56 µM and 44.1 µM.
For CNCCc1nc2cc(F)ccc2[nH]1, the IC50 [1] was 47.9 µM and 34.8 µM.
With Fc1cccc(N2C[C@H]3CCN(c4cccnc4)C[C@H]3C2)c1 the IC50 [1] was 40.6 µM and 35.1 µM, the IC50 [2] was greater than 50.1 µM and the IC50 [3] was 45.2 µM.
For c1cncc(-c2ccc3c(c2)CCC32CCN(Cc3nccs3)CC2)c1, the IC50 [1] was 75.2 µM and 52.4 µM, the IC50 [2] was 36.3 µM and the IC50 [3] was 36.1 µM.
